The record followed here is publication PMC2955234 (Investigational New Drugs, 2009).

Where two headings read alike, the source gives them in different places.

The format of data set [1] is in vivo, human.
The test system of another data set is lymphocyte. The experiment in a line: Drug lymphocyte stimulation test in the two patients with erythema multiforme. In kind it is cell-based, human. To be noted: both patients with erythema multiforme of cohort 1.
The nature of data set [2]: Pharmacokinetics of sorafenib in plasma. In kind it is in vivo. The following applies: human, oral, 400 mg; for Cmax: C max.
A further data set can be described thus: Dose-limiting toxicity. Format: in vivo, human. To be noted: in combination with carboplatin AUC 5 mg min mL^−1 and paclitaxel 200 mg/m^2, Japanese patients with advanced NSCLC.
Where [3] appears, read: sorafenib at 400 mg twice daily.
[4] abbreviates: Cohort 2, dose-adjusted ratio cycle 2 relative to cycle 1.

Regarding `CC(=O)O[C@H]1C(=O)[C@@]2(C)[C@H]([C@H](OC(=O)c3ccccc3)[C@]3(O)C[C@H](OC(=O)[C@H](O)[C@@H](NC(=O)c4ccccc4)c4ccccc4)C(C)=C1C3(C)C)[C@]1(OC(C)=O)CO[C@@H]1[C@@H](O)[C@@H]2O` [6-hydroxy-paclitaxel], the “increases in the AUC and C max values after sorafenib administration” value in data set [1] (setting [3]) is “not statistically significant”.

Take `CC(=O)O[C@H]1C(=O)[C@@]2(C)[C@H]([C@H](OC(=O)c3ccccc3)[C@]3(O)C[C@H](OC(=O)[C@H](O)[C@@H](NC(=O)c4ccccc4)c4ccccc4)C(C)=C1C3(C)C)[C@]1(OC(C)=O)CO[C@@H]1C[C@@H]2O` [Paclitaxel]: in data set [1] (setting [4]), the “AUC Ratio [90% CI]” value is 1.05 [0.88–1.25]. For the same compound, the “C max Ratio [90% CI]” value in data set [1] (setting [4]) is 1.19 [0.80–1.77]; in data set [1] (Cohort 2, dose-adjusted ratio cycle 3 relative to cycle 1), 1.39 [0.88–2.21]. Besides, the “increases in the AUC and C max values after sorafenib administration” value in data set [1] (setting [3]) was “not statistically significant”. For the same compound, the “drug lymphocyte stimulation test result” value in the data set with lymphocyte is given as “negative”.

As for `CNC(=O)c1cc(Oc2ccc(NC(=O)Nc3ccc(Cl)c(C(F)(F)F)c3)cc2)ccn1` [Sorafenib], the AUC(0-t) (in general, exposure summed from dosing to a finite time, without extrapolation to infinity) amounted to 18200 ng·h/mL in data set [2] (AUC0–12, Cohort 1, cycle 1, day 2, 400 mg sd (n = 6), geometric mean (% CV)); 9000 ng·h/mL in data set [2] (AUC0–12, Cohort 2, cycle 1, day 2, 400 mg sd (n = 7), geometric mean (% CV)); 24400 ng·h/mL in data set [2] (AUC0–12, Cohort 2, cycle 1, day 19, 400 mg od (n = 7), geometric mean (% CV)); 14600 ng·h/mL in data set [2] (AUC0–12, Cohort 2, cycle 2, day 2, 400 mg sd (n = 6), geometric mean (% CV)). Besides, the Cmax (as a rule, the maximum level reached in the sampled fluid or tissue) worked out at 4600 ng/mL in data set [2] (Cohort 1, cycle 1, day 19, 400 mg bid (n = 3), geometric mean (% CV)); 1200 ng/mL in data set [2] (Cohort 2, cycle 1, day 2, 400 mg sd (n = 7), geometric mean (% CV)); 3200 ng/mL in data set [2] (Cohort 2, cycle 1, day 19, 400 mg od (n = 7), geometric mean (% CV)); 5900 ng/mL in data set [2] (Cohort 2, cycle 2, day 19, 400 mg bid (n = 4), geometric mean (% CV)). In addition, the half-life (commonly how long it takes for the measured level to halve) was 20.4 to 26.8 h in data set [2] (mean t 1/2, on day 19, across cohorts and cycles); 20.4 h in data set [2] (t 1/2, Cohort 1, cycle 1, day 19, 400 mg bid (n = 3), geometric mean (% CV)); 26.8 h in data set [2] (t 1/2, Cohort 2, cycle 1, day 19, 400 mg od (n = 7), geometric mean (% CV)); 23.9 h in data set [2] (t 1/2, Cohort 2, cycle 2, day 19, 400 mg bid (n = 4), geometric mean (% CV)). In addition, the “dose of sorafenib confirmed to be feasible” value in the data set “Dose-limiting toxicity” is reported as 400 mg once daily. Moreover, in the data set on lymphocyte, the “drug lymphocyte stimulation test result” value is listed as “positive”.

Turning to `N.N.O=C([O-])C1(C(=O)[O-])CCC1.[Pt+2]` [carboplatin], in data set [1] (setting [3]), the “effect of sorafenib on the pharmacokinetics” value was “no effect”. Moreover, the “drug lymphocyte stimulation test result” value in the data set with lymphocyte is “negative”.
